Our source for the remaining activity values is patent US20110028445A1, “Urea derivatives of benzomorphanes and related scaffolds, medicaments containing such compounds and their use” (BOEHRINGER INGELHEIM INTERNATIONAL GMBH, priority 2008, published 2011).

The assay concerns the target T1, 11β-HSD1 (Homo sapiens, UniProt P28845).
T1 construct: detecting cortisol generated from cortisterone by human liver microsomes; from tissue; host or cells: human liver microsomes
The assay is described as follows: In vitro inhibition of 11β-HSD1, HTRF detection of cortisol generated by human liver microsomes. The conditions noted are these: compound concentration 1 μM, 100% indicates no inhibition, zero or below zero indicates complete inhibition, cortisone 80 nM, 1 hour at 37° C., read-out: % CTL at 1 μM. It counts as biochemical. The procedure: Briefly, compounds were incubated for 1 hour at 37° C. in Tris buffer (20 mM tris, 5 mM EDTA, pH 6.0) containing NADPH (200 μM) and cortisone (80 nM). Cortisol generated in the reaction is then detected with a competitive immunoassay, involving two HTRF conjugates: cortisol linked to XL665 and anti-cortisol antibody labeled with Europium cryptate. The incubation period for detection reaction was typically 2 hours. The amount of cortisol is determined by reading the time-resolved fluorescence of the wells (Ex 320/75 nm; Em 615/8.5 nm and 665/7.5 nm). The ratio of the two emission signals is then calculated (Em665*10000/Em615). […] Each assay also contained a calibration curve with cortisol to transform the fluorescent data into cortisol concentrations. Percent inhibition of each compound was determined relative to the carbenoxolone signal and IC50 curves were generated.
The % CTL values of some example compounds at a concentration of 1 μM are provided in the following Table 2 wherein 100% indicates no inhibition and a value of zero or below zero indicates complete inhibition. The measurement of % CTL is described hereinbefore.
In general terms: In TR-FRET formats the signal depends on donor and acceptor labels being close together.

T1 sequence (P28845 whole entry): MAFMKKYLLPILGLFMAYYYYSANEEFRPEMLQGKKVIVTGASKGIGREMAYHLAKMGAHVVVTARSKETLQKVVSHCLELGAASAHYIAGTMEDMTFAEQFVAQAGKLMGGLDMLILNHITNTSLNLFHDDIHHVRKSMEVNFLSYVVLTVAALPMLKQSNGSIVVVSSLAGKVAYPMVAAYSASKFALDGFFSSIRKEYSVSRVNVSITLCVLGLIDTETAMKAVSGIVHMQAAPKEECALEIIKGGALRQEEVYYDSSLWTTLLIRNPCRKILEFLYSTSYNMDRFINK

Turning to `CC1(C)[C@H]2Cc3ccccc3[C@]1(C)CCN2C(=O)N1CCC[C@H](CO)C1` [Example 64], the remaining activity at 1 µM was -33%.
Take `CC(C)(O)C1CCN(C(=O)N2CC[C@@]3(C)c4ccccc4C[C@@H]2C3(C)C)CC1` [Example 65]: the remaining activity at 1 µM is 2%.
Next, `CC(C)(O)[C@@H]1CCCN(C(=O)N2CC[C@@]3(C)c4ccccc4C[C@@H]2C3(C)C)C1` [Example 66, [(R)-3-(1-Hydroxy-1-methyl-ethyl)-piperidin-1-yl]-[(2R,6S)-6,11,11-trimethyl-1,2,5,6-tetrahydro-4H-2,6-methano-benzo[d]azocin-3-yl]-methanone]: -16%.
In the case of `CC1(C)[C@H]2Cc3ccccc3[C@]1(C)CCN2C(=O)N1CCOC[C@H]1c1ccccc1` [Example 67], the remaining activity at 1 µM amounted to 71%.
Next, `CC1(C)[C@H]2Cc3ccccc3[C@]1(C)CCN2C(=O)N1CCOCC1c1ccccc1` (some centres unmarked) [Example 68]: 87%.
Under `CC(C)(O)[C@H]1CCCN(C(=O)N2CC[C@@]3(C)c4ccccc4C[C@@H]2C3(C)C)C1` [Example 69] stands 6%; under `CC1(C)[C@H]2Cc3ccccc3[C@]1(C)CCN2C(=O)N1CCC(O)CC1` [Example 70], -15%; under `CC1(C)[C@H]2Cc3ccccc3[C@]1(C)CCN2C(=O)N1CCC[C@@H](CO)C1` [Example 71, [(R)-3-Hydroxymethyl-piperidin-1-yl]-[(2R,6S)-6,11,11-trimethyl-1,2,5,6-tetrahydro-4H-2,6-methano-benzo[d]azocin-3-yl)-methanone], -18%.
For `CC1(C)[C@H]2Cc3ccccc3[C@]1(C)CCN2C(=O)N1CCC(O)(C(F)(F)F)CC1` [Example 72], the remaining activity at 1 µM was -11%.
In the case of `CC1(C)[C@H]2Cc3ccccc3[C@]1(C)CCN2C(=O)N1[C@@H]2CC[C@H]1C[C@](O)(C(F)(F)F)C2` [Example 73], the remaining activity at 1 µM was -6%.
Consider `CC1(C)[C@H]2Cc3ccccc3[C@]1(C)CCN2C(=O)N1[C@@H]2CC[C@H]1C[C@@H](O)C2` [Example 74], for which the remaining activity at 1 µM is -17%.
As to `COC(=O)CC1(c2ccccc2)CCN(C(=O)N2CC[C@@]3(C)c4ccccc4C[C@@H]2C3(C)C)C1` (some centres unmarked) [Example 75], the remaining activity at 1 µM came to 26%.
In the case of `CC1(C)[C@H]2Cc3ccccc3[C@]1(C)CCN2C(=O)N1[C@@H]2CC[C@H]1CC(=O)C2` [Example 76], the remaining activity at 1 µM was -10%.
For the molecule `CC1(C)[C@H]2Cc3ccccc3[C@]1(C)CCN2C(=O)N1CCC(CCO)(c2ccccc2)C1` (some centres unmarked) [Example 77], the remaining activity at 1 µM worked out at 30%.
Next, `CC(C)(O)CC1(c2ccccc2)CCN(C(=O)N2CC[C@@]3(C)c4ccccc4C[C@@H]2C3(C)C)C1` (some centres unmarked) [Example 78]: 61%.
`CC1(C)[C@H]2Cc3ccccc3[C@]1(C)CCN2C(=O)N1[C@@H]2CC[C@H]1C[C@H](O)C2` [Example 79, (exo-3-Hydroxy-8-aza-bicyclo[3.2.1]oct-8-yl)-[(2R,6S)-6,11,11-trimethyl-1,2,5,6-tetrahydro-4H-2,6-methano-benzo[d]azocin-3-yl]-methanone]: the remaining activity at 1 µM amounted to 13%.
In the case of `CC1(C)[C@H]2Cc3ccccc3[C@]1(C)CCN2C(=O)N1[C@@H]2CC[C@H]1C[C@@](O)(C(F)(F)F)C2` [Example 80], the remaining activity at 1 µM came to 70%.
